The record followed here is the supplement of paper PMC8671470.

SMILES strings stand for the structures. ± gives the standard deviation of the averaged measurements.

The test concerns HL-60. The test is described as follows: cell viability (% survival relative to DMSO control); higher = less cytotoxic. The note with it: 72 h. An outline of the steps:
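A rescreen of the full library used HL-60 cells in RPMI 1640 with 10% FBS on 384-well plates, run in duplicate at five tenfold concentrations (1–10,000 nM). Each screen included DMSO or 100 nM of one of three metabolic inhibitors and ran 72 h at 37 °C, 5% CO2. CellTiter-Glo viability was scaled between DMSO and 10 μM proteasome-inhibitor wells. Any area under the curve comes from four-parameter log-logistic fits with drc and PharmacoGx.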

Setting [1] is: 0.001 µM, co-treatment: AZD3965 100 nM.
[2] abbreviates: 0.001 µM, co-treatment: DMSO vehicle.
Where [3] appears, read: 0.001 µM, co-treatment: GSK2194069 100 nM.
Where [4] appears, read: 0.001 µM, co-treatment: pictilisib 100 nM.
Setting [5] is: 0.01 µM, co-treatment: AZD3965 100 nM.
Setting [6] is: 0.01 µM, co-treatment: DMSO vehicle.
Where [7] appears, read: 0.01 µM, co-treatment: GSK2194069 100 nM.
[8] abbreviates: 0.01 µM, co-treatment: pictilisib 100 nM.
The mark [9] stands for this setting: 0.1 µM, co-treatment: AZD3965 100 nM.
[10] abbreviates: 0.1 µM, co-treatment: DMSO vehicle.
Setting [11] is: 0.1 µM, co-treatment: GSK2194069 100 nM.
The mark [12] stands for this setting: 0.1 µM, co-treatment: pictilisib 100 nM.
The mark [13] stands for this setting: 1 µM, co-treatment: AZD3965 100 nM.
The mark [14] stands for this setting: 1 µM, co-treatment: DMSO vehicle.
[15] abbreviates: 1 µM, co-treatment: GSK2194069 100 nM.
Setting [16] is: 1 µM, co-treatment: pictilisib 100 nM.
The mark [17] stands for this setting: 10 µM, co-treatment: AZD3965 100 nM.
Where [18] appears, read: 10 µM, co-treatment: DMSO vehicle.
Where [19] appears, read: 10 µM, co-treatment: GSK2194069 100 nM.
[20] abbreviates: 10 µM, co-treatment: pictilisib 100 nM.

On to `N[C@](CCCCB(O)O)(CCN1CCCCC1)C(=O)O` [Arginase inhibitor 1], for which the cell viability reads like this: under setting [1], 94.6 ± 14%; under setting [2], 102.5 ± 0.45%; under setting [3], 91.7 ± 12%; under setting [4], 87.5 ± 14%; under setting [5], 98.6 ± 5.9%; under setting [6], 97.3 ± 2%. Also, the cell viability under setting [7] came out at 100 ± 5.7%; the cell viability under setting [8] worked out at 94.4 ± 4.9%; the cell viability under setting [9] is 99.9 ± 2.7%; the cell viability under setting [10] worked out at 102 ± 3.7%; the cell viability under setting [11] is 109.7 ± 0.86%; the cell viability under setting [12] was 98.3 ± 3%. Besides, the cell viability was determined as 99.151 ± 0.014% under setting [13]; 98.12 ± 0.95% under setting [14]; 90.6 ± 12% under setting [15]; 90.8 ± 6.9% under setting [16]; 102.3 ± 0.42% under setting [17]; 103 ± 7.5% under setting [18]. The cell viability was 101 ± 6.6% under setting [19] and 99.5 ± 2.6% under setting [20].
Consider `Clc1ccc2c(c1Cl)CNCC2`, for which the cell viability runs as follows: under setting [1], 97.69 ± 0.2%; under setting [2], 100 ± 2.3%; under setting [3], 93.2 ± 0.5%; under setting [4], 97.1 ± 7.5%; under setting [5], 94 ± 7.1%; under setting [6], 103.4 ± 0.11%. The cell viability under setting [7] was found to be 102.4 ± 0.12%; the cell viability under setting [8] came out at 108 ± 11%; the cell viability under setting [9] worked out at 103 ± 2.1%; the cell viability under setting [10] turned out to be 103 ± 3.9%; the cell viability under setting [11] turned out to be 107 ± 9.4%; the cell viability under setting [12] came to 103 ± 8.7%. Further, the cell viability reads like this: under setting [13], 105 ± 4.7%; under setting [14], 99.5 ± 2.9%; under setting [15], 106.8 ± 0.64%; under setting [16], 95.3 ± 7.3%; under setting [17], 102 ± 1.6%; under setting [18], 107 ± 6.2%. Moreover, the cell viability under setting [19] worked out at 99.73 ± 0.7% and the cell viability under setting [20] was found to be 103.3 ± 0.41%.
For `CCOC(=O)N1c2ccc(C(F)(F)F)cc2[C@@H](N(Cc2cc(C(F)(F)F)cc(C(F)(F)F)c2)C(=O)OC)C[C@H]1CC` [Torcetrapib], the cell viability by setting is: under setting [1], 101 ± 1.8%; under setting [2], 104.8 ± 1%; under setting [3], 101 ± 10%; under setting [4], 113 ± 16%; under setting [5], 98.6 ± 2.3%; under setting [6], 99.13 ± 0.66%. Besides, the cell viability reads like this: under setting [7], 104 ± 15%; under setting [8], 105 ± 22%; under setting [9], 97.5 ± 4%; under setting [10], 98.7 ± 8.2%; under setting [11], 88 ± 9.7%; under setting [12], 83.6 ± 18%. The cell viability reads like this: under setting [13], 97.7 ± 6.2%; under setting [14], 103 ± 6.9%; under setting [15], 94.9 ± 7.2%; under setting [16], 100 ± 4.2%; under setting [17], 98.8 ± 5.5%; under setting [18], 100 ± 1.6%. Moreover, the cell viability reads like this: under setting [19], 95.4 ± 16%; under setting [20], 117 ± 21%.
Turning to `O=C(O)CCc1ccc(NCc2cccc(Oc3ccccc3)c2)cc1` [GW9508], the cell viability under setting [1] amounted to 101 ± 1.3%; the cell viability under setting [2] was 95.5 ± 6.2%; the cell viability under setting [3] worked out at 105 ± 9.8%; the cell viability under setting [4] was determined as 99.4 ± 5.3%; the cell viability under setting [5] came out at 98.73 ± 0.68%; the cell viability under setting [6] amounted to 99.12 ± 0.57%. The cell viability by setting is: under setting [7], 98.1 ± 2.8%; under setting [8], 90.3 ± 3.8%; under setting [9], 98 ± 3.5%; under setting [10], 101.3 ± 0.3%; under setting [11], 101 ± 2.4%; under setting [12], 90.9 ± 12%. Moreover, the cell viability runs as follows: under setting [13], 105 ± 4.1%; under setting [14], 99.6 ± 0.95%; under setting [15], 108 ± 8.4%; under setting [16], 97.1 ± 6.7%; under setting [17], 103 ± 3.2%; under setting [18], 98.5 ± 1.1%. In addition, the cell viability runs as follows: under setting [19], 107 ± 3.9%; under setting [20], 100 ± 3.3%.
In the case of `CC(Cc1ccc(O)c(O)c1)C(C)Cc1ccc(O)c(O)c1` (stereo not given) [Masoprocol], the cell viability under setting [1] turned out to be 103 ± 4.1%; the cell viability under setting [2] was 101.9 ± 0.67%; the cell viability under setting [3] was 102 ± 9.7%; the cell viability under setting [4] was 102 ± 5.4%; the cell viability under setting [5] was 100 ± 7.9%; the cell viability under setting [6] is 98.1 ± 2.7%. Moreover, the cell viability was determined as 100.9 ± 0.44% under setting [7]; 89.6 ± 7.2% under setting [8]; 98.5 ± 1.4% under setting [9]; 96.29 ± 0.34% under setting [10]; 98.6 ± 2.7% under setting [11]; 94 ± 5.3% under setting [12]. For the same compound, the cell viability under setting [13] amounted to 92.8 ± 4.1%; the cell viability under setting [14] turned out to be 99.3 ± 1.9%; the cell viability under setting [15] amounted to 96.6 ± 4.1%; the cell viability under setting [16] came out at 86.4 ± 1.2%; the cell viability under setting [17] worked out at 10.8 ± 0.34%; the cell viability under setting [18] is 12.9 ± 3.7%. The cell viability stood at 21.8 ± 0.43% under setting [19] and 4.58 ± 1% under setting [20].
Consider `Nc1ccn([C@@H]2O[C@H](CO)[C@@H](O)[C@@H]2O)c(=O)n1` [Cytarabine], for which the cell viability is, setting by setting: under setting [1], 82 ± 32%; under setting [2], 80.7 ± 36%; under setting [3], 99.2 ± 2.5%; under setting [4], 103 ± 14%; under setting [5], 96.1 ± 7.4%; under setting [6], 102 ± 1.5%. The cell viability was 97.4 ± 1.3% under setting [7]; 101 ± 5.1% under setting [8]; 99.4 ± 4.1% under setting [9]; 101 ± 2.5% under setting [10]; 95.8 ± 1.5% under setting [11]; 84.52 ± 0.57% under setting [12]. For the same compound, the cell viability under setting [13] stood at 46.7 ± 9.3%; the cell viability under setting [14] came out at 59.5 ± 7%; the cell viability under setting [15] was found to be 60.6 ± 3.9%; the cell viability under setting [16] turned out to be 30.9 ± 0.58%; the cell viability under setting [17] came out at 6.3 ± 2.2%; the cell viability under setting [18] worked out at 6.92 ± 1.2%. Besides, the cell viability is 7.86 ± 0.42% under setting [19] and 6.83 ± 3% under setting [20].

What is called cell viability is a read-out of living cells in per cent, often relative to untreated cells.
